Structures are written as SMILES. Values after ≈ are worked out from the molar mass of the structure shown. Bounds are passed on as bounds.

One test relates to Haemophilus influenzae. Put plainly: Antimicrobial activity against Haemophilus influenzae Rd KW20 by broth microdilution method. The class given is functional.
For `CC1(C)S[C@@H]2[C@H](NC(=O)Cc3ccccc3)C(=O)N2[C@H]1C(=O)O` [PENICILLIN G], the MIC was determined as 0.5 mg/L (≈ 1.5 µM).
On to `CC1(C)S[C@@H]2[C@H](NC(=O)[C@H](N)c3ccccc3)C(=O)N2[C@H]1C(=O)O` [AMPICILLIN], for which the MIC is no more than 0.25 mg/L.
On the same count and under the same terms, with `CC1(C)S[C@@H]2[C@H](NC(=O)[C@H](N)c3ccc(O)cc3)C(=O)N2[C@H]1C(=O)O` [AMOXICILLIN] the figure was no more than 0.5 mg/L.
The same measure, in the same setting: the value for `CO/N=C(\C(=O)N[C@@H]1C(=O)N2C(C(=O)O)=C(COC(N)=O)CS[C@H]12)c1ccco1` [CEFUROXIME] was 0.5 mg/L (≈ 1.18 µM); that for `N[C@@H](C(=O)N[C@@H]1C(=O)N2C(C(=O)O)=C(Cl)CS[C@H]12)c1ccccc1` [CEFACLOR ANHYDROUS] was 1 mg/L (≈ 2.72 µM).
In the case of `CO/N=C(\C(=O)N[C@@H]1C(=O)N2C(C(=O)O)=C(COC(C)=O)CS[C@H]12)c1csc(N)n1` [CEFOTAXIME], the MIC is no more than 0.03 mg/L.
For the molecule `C=CC1=C(C(=O)O)N2C(=O)[C@@H](NC(=O)/C(=N\OCC(=O)O)c3csc(N)n3)[C@H]2SC1` [CEFIXIME], the MIC is no more than 0.03 mg/L.
With `C[C@H]1[C@H](NC(=O)/C(=N\OC(C)(C)C(=O)O)c2csc(N)n2)C(=O)N1S(=O)(=O)O` [AZTREONAM], the MIC is no more than 0.12 mg/L.
In turn, `C[C@@H](O)[C@H]1C(=O)N2C(C(=O)O)=C(SCCNC=N)C[C@H]12` [IMIPENEM ANHYDROUS] gave an MIC of 0.5 mg/L (≈ 1.67 µM).

The next test concerns Haemophilus influenzae. The experiment in a line: Antimicrobial activity against Haemophilus influenzae Rd KW20 harboring with plasmid pB1000 bearing beta-lactamase ROB-1 by broth microdilution method. The class given is functional.
`CC1(C)S[C@@H]2[C@H](NC(=O)Cc3ccccc3)C(=O)N2[C@H]1C(=O)O` [PENICILLIN G] came in with an MIC greater than 256 mg/L.
`CC1(C)S[C@@H]2[C@H](NC(=O)[C@H](N)c3ccccc3)C(=O)N2[C@H]1C(=O)O` [AMPICILLIN] displayed an MIC greater than 128 mg/L.
The molecule `CC1(C)S[C@@H]2[C@H](NC(=O)[C@H](N)c3ccc(O)cc3)C(=O)N2[C@H]1C(=O)O` [AMOXICILLIN] gave an MIC greater than 64 mg/L.
Still for that read-out and setting: the value for `CO/N=C(\C(=O)N[C@@H]1C(=O)N2C(C(=O)O)=C(COC(N)=O)CS[C@H]12)c1ccco1` [CEFUROXIME] was 4 mg/L (≈ 9.43 µM); that for `N[C@@H](C(=O)N[C@@H]1C(=O)N2C(C(=O)O)=C(Cl)CS[C@H]12)c1ccccc1` [CEFACLOR ANHYDROUS] was 64 mg/L (≈ 174 µM); that for `C=CC1=C(C(=O)O)N2C(=O)[C@@H](NC(=O)/C(=N\OCC(=O)O)c3csc(N)n3)[C@H]2SC1` [CEFIXIME] was 0.06 mg/L (≈ 0.132 µM).
Regarding `C[C@H]1[C@H](NC(=O)/C(=N\OC(C)(C)C(=O)O)c2csc(N)n2)C(=O)N1S(=O)(=O)O` [AZTREONAM], the MIC was no more than 0.12 mg/L.
`C[C@@H](O)[C@H]1C(=O)N2C(C(=O)O)=C(SCCNC=N)C[C@H]12` [IMIPENEM ANHYDROUS] showed an MIC of 1 mg/L (≈ 3.34 µM).

Another test has as its system Haemophilus influenzae. The experiment in a line: Antimicrobial activity against ampicillin resistant nontypeable Haemophilus influenzae isolate BB1050 harboring with plasmid pB1000 bearing beta-lactamase ROB-1 by broth microdilution method. The format is functional.
`CC1(C)S[C@@H]2[C@H](NC(=O)Cc3ccccc3)C(=O)N2[C@H]1C(=O)O` [PENICILLIN G] came in with an MIC greater than 256 mg/L.
`CC1(C)S[C@@H]2[C@H](NC(=O)[C@H](N)c3ccccc3)C(=O)N2[C@H]1C(=O)O` [AMPICILLIN] came in with an MIC greater than 128 mg/L.
The same measure, in the same setting: the value for `CC1(C)S[C@@H]2[C@H](NC(=O)[C@H](N)c3ccc(O)cc3)C(=O)N2[C@H]1C(=O)O` [AMOXICILLIN] was greater than 64 mg/L; that for `CO/N=C(\C(=O)N[C@@H]1C(=O)N2C(C(=O)O)=C(COC(N)=O)CS[C@H]12)c1ccco1` [CEFUROXIME] was 4 mg/L (≈ 9.43 µM); that for `N[C@@H](C(=O)N[C@@H]1C(=O)N2C(C(=O)O)=C(Cl)CS[C@H]12)c1ccccc1` [CEFACLOR ANHYDROUS] was 64 mg/L (≈ 174 µM).
Turning to `CO/N=C(\C(=O)N[C@@H]1C(=O)N2C(C(=O)O)=C(COC(C)=O)CS[C@H]12)c1csc(N)n1` [CEFOTAXIME], the MIC was 0.06 mg/L (≈ 0.132 µM).
In turn, `C=CC1=C(C(=O)O)N2C(=O)[C@@H](NC(=O)/C(=N\OCC(=O)O)c3csc(N)n3)[C@H]2SC1` [CEFIXIME] displayed an MIC of 0.06 mg/L (≈ 0.132 µM).
Take `C[C@H]1[C@H](NC(=O)/C(=N\OC(C)(C)C(=O)O)c2csc(N)n2)C(=O)N1S(=O)(=O)O` [AZTREONAM]: the MIC is no more than 0.12 mg/L.
`C[C@@H](O)[C@H]1C(=O)N2C(C(=O)O)=C(SCCNC=N)C[C@H]12` [IMIPENEM ANHYDROUS]: the MIC was found to be 2 mg/L (≈ 6.68 µM).

In the next test the test system is Haemophilus influenzae. The experiment in a line: Antimicrobial activity against ampicillin resistant nontypeable Haemophilus influenzae isolate BB1051 harboring with plasmid pB1000 bearing beta-lactamase ROB-1 by broth microdilution method. The format is functional.
Regarding `CC1(C)S[C@@H]2[C@H](NC(=O)Cc3ccccc3)C(=O)N2[C@H]1C(=O)O` [PENICILLIN G], the MIC was greater than 256 mg/L.
Molecule `CC1(C)S[C@@H]2[C@H](NC(=O)[C@H](N)c3ccccc3)C(=O)N2[C@H]1C(=O)O` [AMPICILLIN] gave an MIC greater than 128 mg/L.
The molecule `CC1(C)S[C@@H]2[C@H](NC(=O)[C@H](N)c3ccc(O)cc3)C(=O)N2[C@H]1C(=O)O` [AMOXICILLIN] registered an MIC greater than 64 mg/L.
For `CO/N=C(\C(=O)N[C@@H]1C(=O)N2C(C(=O)O)=C(COC(N)=O)CS[C@H]12)c1ccco1` [CEFUROXIME], the MIC worked out at 4 mg/L (≈ 9.43 µM).
Take `N[C@@H](C(=O)N[C@@H]1C(=O)N2C(C(=O)O)=C(Cl)CS[C@H]12)c1ccccc1` [CEFACLOR ANHYDROUS]: the MIC is 64 mg/L (≈ 174 µM).
On the same count and under the same terms, the value for `CO/N=C(\C(=O)N[C@@H]1C(=O)N2C(C(=O)O)=C(COC(C)=O)CS[C@H]12)c1csc(N)n1` [CEFOTAXIME] was no more than 0.03 mg/L.
The same measure, in the same setting: the value for `C=CC1=C(C(=O)O)N2C(=O)[C@@H](NC(=O)/C(=N\OCC(=O)O)c3csc(N)n3)[C@H]2SC1` [CEFIXIME] was 0.06 mg/L (≈ 0.132 µM); that for `C[C@H]1[C@H](NC(=O)/C(=N\OC(C)(C)C(=O)O)c2csc(N)n2)C(=O)N1S(=O)(=O)O` [AZTREONAM] was no more than 0.12 mg/L; that for `C[C@@H](O)[C@H]1C(=O)N2C(C(=O)O)=C(SCCNC=N)C[C@H]12` [IMIPENEM ANHYDROUS] was 0.5 mg/L (≈ 1.67 µM).

In the next test the test system is Haemophilus influenzae. The experiment in a line: Antimicrobial activity against ampicillin resistant nontypeable Haemophilus influenzae isolate BB1052 harboring with plasmid pB1000 bearing beta-lactamase ROB-1 by broth microdilution method. The format is functional.
The molecule `CC1(C)S[C@@H]2[C@H](NC(=O)Cc3ccccc3)C(=O)N2[C@H]1C(=O)O` [PENICILLIN G] registered an MIC greater than 256 mg/L.
In turn, `CC1(C)S[C@@H]2[C@H](NC(=O)[C@H](N)c3ccccc3)C(=O)N2[C@H]1C(=O)O` [AMPICILLIN] registered an MIC greater than 128 mg/L.
Still for that read-out and setting: with `CC1(C)S[C@@H]2[C@H](NC(=O)[C@H](N)c3ccc(O)cc3)C(=O)N2[C@H]1C(=O)O` [AMOXICILLIN] the figure was greater than 64 mg/L.
Same read-out and setting: the value for `CO/N=C(\C(=O)N[C@@H]1C(=O)N2C(C(=O)O)=C(COC(N)=O)CS[C@H]12)c1ccco1` [CEFUROXIME] was 4 mg/L (≈ 9.43 µM).
In the case of `N[C@@H](C(=O)N[C@@H]1C(=O)N2C(C(=O)O)=C(Cl)CS[C@H]12)c1ccccc1` [CEFACLOR ANHYDROUS], the MIC is 64 mg/L (≈ 174 µM).
Still for that read-out and setting: the value for `CO/N=C(\C(=O)N[C@@H]1C(=O)N2C(C(=O)O)=C(COC(C)=O)CS[C@H]12)c1csc(N)n1` [CEFOTAXIME] was no more than 0.03 mg/L.
As for `C=CC1=C(C(=O)O)N2C(=O)[C@@H](NC(=O)/C(=N\OCC(=O)O)c3csc(N)n3)[C@H]2SC1` [CEFIXIME], the MIC is no more than 0.03 mg/L.
Still for that read-out and setting: with `C[C@H]1[C@H](NC(=O)/C(=N\OC(C)(C)C(=O)O)c2csc(N)n2)C(=O)N1S(=O)(=O)O` [AZTREONAM] the figure was no more than 0.12 mg/L.
Consider `C[C@@H](O)[C@H]1C(=O)N2C(C(=O)O)=C(SCCNC=N)C[C@H]12` [IMIPENEM ANHYDROUS], for which the MIC is 1 mg/L (≈ 3.34 µM).

The subject of another test is Haemophilus influenzae. Put plainly: Antimicrobial activity against ampicillin resistant serotype-e Haemophilus influenzae isolate BB1053 harboring with plasmid pB1000 bearing beta-lactamase ROB-1 by broth microdilution method. The format is functional.
In the case of `CC1(C)S[C@@H]2[C@H](NC(=O)Cc3ccccc3)C(=O)N2[C@H]1C(=O)O` [PENICILLIN G], the MIC was greater than 256 mg/L.
On to `CC1(C)S[C@@H]2[C@H](NC(=O)[C@H](N)c3ccccc3)C(=O)N2[C@H]1C(=O)O` [AMPICILLIN], for which the MIC is greater than 128 mg/L.
On the same count and under the same terms, the value for `CC1(C)S[C@@H]2[C@H](NC(=O)[C@H](N)c3ccc(O)cc3)C(=O)N2[C@H]1C(=O)O` [AMOXICILLIN] was greater than 64 mg/L; that for `CO/N=C(\C(=O)N[C@@H]1C(=O)N2C(C(=O)O)=C(COC(N)=O)CS[C@H]12)c1ccco1` [CEFUROXIME] was 4 mg/L (≈ 9.43 µM).
On to `N[C@@H](C(=O)N[C@@H]1C(=O)N2C(C(=O)O)=C(Cl)CS[C@H]12)c1ccccc1` [CEFACLOR ANHYDROUS], for which the MIC was 64 mg/L (≈ 174 µM).
Still for that read-out and setting: the value for `CO/N=C(\C(=O)N[C@@H]1C(=O)N2C(C(=O)O)=C(COC(C)=O)CS[C@H]12)c1csc(N)n1` [CEFOTAXIME] was no more than 0.03 mg/L; that for `C=CC1=C(C(=O)O)N2C(=O)[C@@H](NC(=O)/C(=N\OCC(=O)O)c3csc(N)n3)[C@H]2SC1` [CEFIXIME] was 0.06 mg/L (≈ 0.132 µM).
In the case of `C[C@H]1[C@H](NC(=O)/C(=N\OC(C)(C)C(=O)O)c2csc(N)n2)C(=O)N1S(=O)(=O)O` [AZTREONAM], the MIC was no more than 0.12 mg/L.
Same read-out and setting: with `C[C@@H](O)[C@H]1C(=O)N2C(C(=O)O)=C(SCCNC=N)C[C@H]12` [IMIPENEM ANHYDROUS] the figure was 0.5 mg/L (≈ 1.67 µM).

(Values after ChEMBL document CHEMBL1255399, “Haemophilus influenzae clinical isolates with plasmid pB1000 bearing blaROB-1: fitness cost and interspecies dissemination” (2010).)
